ChEMBL document CHEMBL5331051, “Cationic, amphipathic small molecules based on a triazine-piperazine-triazine scaffold as a new class of antimicrobial agents” (Eur J Med Chem, 2022)
Calls of active or inactive are those of the source. The rule behind the calls is not given here.

What was measured:
Pseudomonas aeruginosa [1] = experiment: Antibacterial activity against multidrug-resistant Pseudomonas aeruginosa CCARM 2095 strain assessed as fractional inhibitory concentration by checkerboard assay; assay type: functional
Pseudomonas aeruginosa [2] = experiment: Antibacterial activity against multidrug-resistant Pseudomonas aeruginosa CCARM 2095 strain assessed as bacterial growth inhibition by checkerboard assay; assay type: functional
Pseudomonas aeruginosa [3] = experiment: Antibacterial activity against multidrug-resistant Pseudomonas aeruginosa CCARM 2095 strain assessed as chloramphenicol MIC by checkerboard assay; assay type: functional
Staphylococcus aureus [4] = experiment: Additive antibacterial activity against multidrug-resistant Staphylococcus aureus CCARM 3089 strain assessed as fractional inhibitory concentration index in presence of ciprofloxacin by checkerboard assay; assay type: functional
Pseudomonas aeruginosa [5] = experiment: Synergistic bactericidal activity against multidrug-resistant Pseudomonas aeruginosa CCARM 2095 at 0.5 times MIC measured after 60 mins in presence of 0.5 times MIC of ciprofloxacin by time-kill kinetics assay; assay type: functional, organism-based
Pseudomonas aeruginosa [6] = experiment: Additive antibacterial activity against multidrug-resistant Pseudomonas aeruginosa CCARM 2095 strain assessed as ciprofloxacin MIC by checkerboard assay; assay type: functional
Staphylococcus aureus [7] = experiment: Antibacterial activity against multidrug-resistant Staphylococcus aureus CCARM 3089 strain assessed as fractional inhibitory concentration index in presence of ciprofloxacin by checkerboard assay; assay type: functional
Pseudomonas aeruginosa [8] = experiment: Additive antibacterial activity against multidrug-resistant Pseudomonas aeruginosa CCARM 2095 strain assessed as fractional inhibitory concentration in presence of chloramphenicol by checkerboard assay; assay type: functional
Staphylococcus aureus [9] = experiment: Antibacterial activity against methicillin-resistant Staphylococcus aureus CCARM 3089 strain assessed as bacterial growth inhibition in presence of ciprofloxacin by checkerboard assay; assay type: functional
Pseudomonas aeruginosa [10] = experiment: Additive antibacterial activity against multidrug-resistant Pseudomonas aeruginosa CCARM 2095 strain assessed as bacterial growth inhibition by checkerboard assay; assay type: functional

NCCNc1nc(NCCN)nc(N2CC(Cc3ccccc3)N(c3nc(NCCN)nc(NCCN)n3)CC2Cc2ccccc2)n1 (stereo not given)
FIC (Pseudomonas aeruginosa [1]): 0.25
MIC (Pseudomonas aeruginosa [2]): 16 µg/mL
MIC (Pseudomonas aeruginosa [3]): 256 µg/mL
fractional inhibitory concentration index (FICI) (Staphylococcus aureus [4]): 0.75

NCCN(CCN)c1nc(NCc2ccccc2)nc(N2CC(Cc3ccccc3)N(c3nc(NCc4ccccc4)nc(N(CCN)CCN)n3)CC2Cc2ccccc2)n1 (stereo not given)
Activity (Pseudomonas aeruginosa [5]): Active

N=C(N)NCCNc1nc(NCCNC(=N)N)nc(N2CC(Cc3ccccc3)N(c3nc(NCCNC(=N)N)nc(NCCNC(=N)N)n3)CC2Cc2ccccc2)n1 (stereo not given)
MIC (Pseudomonas aeruginosa [6]): 512 µg/mL
fractional inhibitory concentration index (FICI) (Staphylococcus aureus [7]): 1.25
FIC (Pseudomonas aeruginosa [8]): 0.5
MIC (Staphylococcus aureus [9]): 8 µg/mL
MIC (Pseudomonas aeruginosa [10]): 16 µg/mL
